In patent US20230210857A1, “RESPIRATORY STIMULANT PARENTERAL FORMULATIONS” (Enalare Therapeutics Inc., priority 2021, published 2023):

What was measured:
[1] = Stability as a function of pH, narrow range pH 2-3.6 (1 mg/mL in ~10 mM citric acid/glycine buffers); assay type: physicochemical
Experimental: Accordingly, the stability of the compound was evaluated in the pH range 2-3.6.
Methodology: Buffer solutions containing ˜10 mM each of citric acid and glycine in the pH range 2-3.6 were prepared by titrating 250 mL of a single stock containing both buffer agents with 1N NaOH/1N HCl and removing 50 mL aliquots at predetermined pH values. Solutions at 1 mg/mL were prepared in the buffers by dissolving ˜25 mg of compound in ˜23 mL of a given buffer, adjusting the pH to the target and making up the volume to 25.0 mL in a volumetric flask.
Each of the buffered solutions was filtered through a 0.2 μm polyether sulfone syringe filter into a volumetric flask previously rinsed with 70% ethanol and dried in a laminar flow hood. Following filtration, each buffered solution was split into 9 aliquots in 5 mL serum vials previously rinsed with 70% ethanol and dried in a laminar flow hood. Filtration and preparation of aliquots were performed in a laminar flow hood. Of the nine aliquots, three aliquots were stored at each 40° C. and 60° C., two aliquots were stored at 25° C. and one aliquot was submitted for T0 testing. Samples were evaluated for pH, assay and related substances at T0 and, following 1 week, 2 weeks and 4 weeks of storage at 40° C. and 60° C. Samples stored at 25° C. served as controls to be analyzed if necessary.
This means that any increase in the pH of the formulation leads to an improvement in stability within the pH range in which an aqueous formulation is feasible.

[2] = Three-phase pharmacokinetics (PK) study in minipigs, single IV and IM doses; conditions: male, Gottingen, minipig, in vivo; for AUC(0-inf): AUCINF; for AUC(0-t): AUClast; for half-life: T1/2
Experimental: The study consisted of conducting a bioequivalence (BE) study in minipigs. Two formulations of a Compound having Formula (I) (N-(4,6-Bis-n-propylamino-[1,3,5]triazin-2-yl)-O,N-dimethyl-hydroxylamine) were tested in the study as follows:
For IV administration, minipigs (n=3) received a single IV bolus (1-2 minutes) administration of the Compound having Formula (I) (N-(4,6-Bis-n-propylamino-[1,3,5]triazin-2-yl)-O,N-dimethyl-hydroxylamine) via VAP (vascular access port) at the jugular vein. For IM administration, minipigs (n=3) received a single IM administration of Compound having Formula (I) (N-(4,6-Bis-n-propylamino-[1,3,5]triazin-2-yl)-O,N-dimethyl-hydroxylamine) via the lateral neck muscle (behind the ear). The animals were dosed before noon on dosing days. The routes allowed for the determination of pharmacokinetics of Compound having Formula (I) (N-(4,6-Bis-n-propylamino-[1,3,5]triazin-2-yl)-O,N-dimethyl-hydroxylamine) from IV and IM administration.
A PK study was conducted in male Gottingen minipigs (n=3), which were administered in a single IV and subsequent IM doses using the dosing scheme outlined in Table 25. There was a minimum of 3 day washout period between dose events.
The mean dose for IV dose Group 1 was 4.79+/−0.012 mg/kg. The mean dose for IM dose Group 2 was 4.82+/−0.036 mg/kg. The mean dose for IM dose Group 3 was 4.79+/−0.033 mg/kg. All through groups nominal doses were 4.8 mg/kg. These does were based on the nominal concentrations of the Compound having Formula (I) (N-(4,6-Bis-n-propylamino-[1,3,5]triazin-2-yl)-O,N-dimethyl-hydroxylamine) in the dose formulations (purity, water, and salt content corrected).
For IV administration, minipigs (n=3) received a single IV bolus (1-2 minutes) administration of Compound having Formula (I) (N-(4,6-Bis-n-propylamino-[1,3,5]triazin-2-yl)-O,N-dimethyl-hydroxylamine) via a Vascular access port (VAP) in the jugular vein. For IM administration, minipigs (n=3) received a single IM administration of each IM formulation via the lateral neck muscle (behind the ear). For each dose event, blood samples were collected at 8 time points: 0.083, 0.167, 0.25, 0.5, 1, 2, 4 and 24 hours post dose. General observations were conducted twice-daily for any treatment-related effects/toxicity and/or tolerability. Table 26 includes the Plasma Concentration Descriptive Statistics of Compound having Formula (I) (N-(4,6-Bis-n-propylamino-[1,3,5]triazin-2-yl)-O,N-dimethyl-hydroxylamine). Table 27 illustrates the plasma concentration pharmacokinetic parameters of Compound having Formula (I) (N-(4,6-Bis-n-propylamino-[1,3,5]triazin-2-yl)-O,N-dimethyl-hydroxylamine).
The plasma concentration descriptive statistics of the compound having Formula (I) (N-(4,6-Bis-n-propyl amino-[1,3,5]triazin-2-yl)-O,N-dimethyl-hydroxyl amine) are presented in Table 28.
The T1/2 values were 3.0 hours for IV Group 1 and 3.2 hours and 2.7 hours for IM Groups 2 and 3, respectively.
For each dose level, Cmax was higher for IV dosing than for IM dosing whereas AUClast was higher for IM dosing than for IV dosing.
The IV and IM bioavailability of a Compound having Formula (I) (N-(4,6-Bis-n-propylamino-[1,3,5]triazin-2-yl)-O,N-dimethyl-hydroxylamine) is presented in Table 30.
The IV formulation single injection yielded higher Cmax and shorter time to Cmax(Tmax). […] From the present pharmacokinetic study, it is believed that IM Formulation 1 is a simple formulation with high solubility and shorter Tmax, while IM Formulation 2 has higher absorption in both rats and minipig.

[3] = iv, 4.8 mg/kg, Mean plasma concentration

An Assay ([1]; target pH 2.0, 60° C. 4 wk) of 0.786, an Impurities ([1]; target pH 2.7, 60° C. 4 wk) of 3.9 and a pH ([1]; target pH 3.0, 60° C. 4 wk) of 3.00 were found for `CCCNc1nc(NCCC)nc(N(C)OC)n1` [active agent, N-(4,6-Bis-n-propylamino-[1,3,5]triazin-2-yl)-O,N-dimethyl-hydroxylamine] in this work. The Assay ([1]; target pH 3.6, 60° C. 2 wk) was 0.958, the bioavailability [2] was 117.2% and the bioavailability ([2]; Bioavailability) was 113%. It also gave an AUClast ([2]; im, 4.8 mg/kg) of 2711 ng·h/mL, a T1/2 ([2]; im, 4.8 mg/kg) of 2.7 h and an AUC(0-inf) ([2]; im, 4.8 mg/kg) of 2720 ng·h/mL. The AUC(0-t) ([2]; im, 4.8 mg/kg) was 2620 ng·h/mL, the Cmax ([2]; im, 4.8 mg/kg) was 466 ng/mL and the half-life ([2]; im, 4.8 mg/kg) was 3.2 h. The Tmax ([2]; im, 4.8 mg/kg) was 0.5 h, the AUC(0-inf) ([2]; iv, 4.8 mg/kg) was 2320 ng·h/mL and the AUC(0-t) ([2]; iv, 4.8 mg/kg) was 2310 ng·h/mL. It also gave a bioavailability ([2]; iv, 4.8 mg/kg, Bioavailability) of 100%, a Cmax ([2]; iv, 4.8 mg/kg) of 2820 ng/mL and a concentration at 0.083 hr [2, 3] of 2820 ng/mL. For the same compound, the concentration at 0.167 hr [2, 3] was 2010 ng/mL, the concentration at 0.25 hr [2, 3] was 1500 ng/mL and the concentration at 0.5 hr [2, 3] was 1020 ng/mL. For the same compound, the concentration at 1 hr [2, 3] was 519 ng/mL, the concentration at 2 hr [2, 3] was 186 ng/mL and the concentration at 4 hr [2, 3] was 40 ng/mL. The concentration at 24 hr [2, 3] was 0.8 ng/mL, the half-life ([2]; iv, 4.8 mg/kg) was 3 h and the Tmax ([2]; iv, 4.8 mg/kg) was 0.083 h.
